Results: the supplement of paper PMC11061612

Tests used:
Assay in all cases: Bliss excess, mean over the matrix (fraction); higher = more synergy
[1] = tested on: ESS-1 (Other Solid Carcinomas)
In short: (§1)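 Cell lines grown in DMEM/F12 or RPMI with 10% FBS were plated in 1536-well plates and held 24 hours at 37°C, 5% CO2 before 72 hours of exposure to two-drug dose matrices, with DMSO typically at 0.2%. CellTiter-Glo 2.0 luminescence gave viability, which was converted to inhibition. Vehicle wells were set to 0 and blank wells to 1. Combination Emax is the second-highest inhibition in the matrix, and Bliss excess is the observed combination effect minus the expected EA + EB − EA·EB, where EA and EB are the single-agent effects.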

[2] = tested on: OV-56 (Ovarian Carcinoma)
In short: as §1

[3] = tested on: KS-1 (Glioblastoma)
In short: as §1

[4] = tested on: EW-11 (Ewing's Sarcoma)
In short: as §1

[5] = tested on: BE-13 (T-Lymphoblastic Leukemia)
In short: as §1

[6] = tested on: OE21 (Esophageal Squamous Cell Carcinoma)
In short: as §1

[7] = tested on: MHH-CALL-2 (B-Lymphoblastic Leukemia)
In short: as §1

[8] = tested on: KYAE-1 (Esophageal Adenocarcinoma)
In short: as §1

[9] = tested on: LS-123 (Colorectal Carcinoma)
In short: as §1

[10] = tested on: CAL-72 (Osteosarcoma)
In short: as §1

Compound | Bliss excess [1] | Bliss excess [2] | Bliss excess [3] | Bliss excess [4] | Bliss excess [5] | Bliss excess [6] | Bliss excess [7] | Bliss excess [8] | Bliss excess [9] | Bliss excess [10]
NC1(C(=O)N[C@@H](CCO)c2ccc(Cl)cc2)CCN(c2ncnc3[nH]ccc23)CC1 [Capivasertib] + CC(C)n1c(=O)n(C)c2cnc3cc(F)c(-c4ccc(OCCCN5CCCCC5)nc4)cc3c21 [AZD1390] (first compound max 10 µM, 7x7, partner max 0.3 µM) | -0.0078 | -0.044 | -0.0969 | -0.0438 | -0.0455 | -0.0474 | -0.0439 | -0.0081 | -0.0493 | -0.133
NC1(C(=O)N[C@@H](CCO)c2ccc(Cl)cc2)CCN(c2ncnc3[nH]ccc23)CC1 [Capivasertib] + CCN(CCO)CCCOc1ccc2c(Nc3cc(CC(=O)Nc4cccc(F)c4)[nH]n3)ncnc2c1 [AZD2811] (first compound max 10 µM, 7x7, partner max 1 µM) | 0.0203 | -0.0077 | 0.0374 | 0.0737 | -0.0125 | 0.0098 | -0.0244 | 0.0023 | -0.0179 | 0.002
NC1(C(=O)N[C@@H](CCO)c2ccc(Cl)cc2)CCN(c2ncnc3[nH]ccc23)CC1 [Capivasertib] + COc1nnc2ccc(N3CCC(c4ccc(OCCN5CCN(C)C(=O)[C@H]5C)cc4)CC3)nn12 [AZD5153] (first compound max 10 µM, 7x7, partner max 1 µM) | 0.0342 | 0.0506 | -0.0211 | 0.115 | -0.0281 | 0.0333 | -0.03 | 0.0352 | 0.0517 | 0.005
NC1(C(=O)N[C@@H](CCO)c2ccc(Cl)cc2)CCN(c2ncnc3[nH]ccc23)CC1 [Capivasertib] + C[C@@H]1COCCN1C2=NC(=NC(=C2)C3(CC3)[S@](=N)(=O)C)C4=C5C=CNC5=NC=C4 [AZD6738] (first compound max 10 µM, 7x7, partner max 10 µM) | -0.0884 | -0.032 | -0.0366 | -0.011 | -0.0877 | -0.0499 | -0.0076 | 0.0014 | 0.0058 | -0.0202
NC1(C(=O)N[C@@H](CCO)c2ccc(Cl)cc2)CCN(c2ncnc3[nH]ccc23)CC1 [Capivasertib] + Cn1cnc2c(F)c(Nc3ccc(Br)cc3Cl)c(C(=O)NOCCO)cc21 [Selumetinib] (first compound max 10 µM, 7x7, partner max 10 µM) | -0.0183 | 0.01 | 0.0426 | 0.021 | 0.0265 | 0.0761 | 0.156 | -0.0064 | 0.0583 | 0.0427
CS(=O)(=O)CCNCc1ccc(-c2ccc3ncnc(Nc4ccc(OCc5cccc(F)c5)c(Cl)c4)c3c2)o1 [Lapatinib] + C[C@@H](Oc1cc(-c2cnn(C3CCNCC3)c2)cnc1N)c1c(Cl)ccc(F)c1Cl [Crizotinib] (first compound max 10 µM, 7x7, partner max 10 µM) | -0.0637 | 0.0056 | -0.0458 | -0.0233 | -0.0235 | 0.0006 | 0.0219 | -0.0171 | -0.0052 | -0.0926
CC(=O)c1c(C)c2cnc(Nc3ccc(N4CCNCC4)cn3)nc2n(C2CCCC2)c1=O [Palbociclib] + CC1(C)CCC(CN2CCN(c3ccc(C(=O)NS(=O)(=O)c4ccc(NCC5CCOCC5)c([N+](=O)[O-])c4)c(Oc4cnc5[nH]ccc5c4)c3)CC2)=C(c2ccc(Cl)cc2)C1 [Venetoclax] (first compound max 10 µM, 7x7, partner max 1 µM) | -0.0303 | -0.0448 | -0.0211 | -0.0083 | -0.0182 | 0.0309 | -0.032 | -0.023 | -0.0324 | -0.0439
CC(=O)c1c(C)c2cnc(Nc3ccc(N4CCNCC4)cn3)nc2n(C2CCCC2)c1=O [Palbociclib] + Cc1c2c(nn1C)CSCc1cc(n(C)n1)CSc1cc(c3ccccc3c1)OCCCc1c(C(=O)O)n(C)c3c-2c(Cl)ccc13 [AZD5991] (first compound max 10 µM, 7x7, partner max 1 µM) | -0.0067 | -0.0824 | -0.0556 | 0.0284 | -0.0277 | -0.0088 | -0.0451 | 0.0035 | -0.0376 | -0.0073
CC(=O)c1c(C)c2cnc(Nc3ccc(N4CCNCC4)cn3)nc2n(C2CCCC2)c1=O [Palbociclib] + Cn1cnc2c(F)c(Nc3ccc(Br)cc3Cl)c(C(=O)NOCCO)cc21 [Selumetinib] (first compound max 10 µM, 7x7, partner max 10 µM) | -0.0097 | -0.0587 | -0.0012 | -0.0298 | -0.0003 | 0.0877 | -0.0407 | -0.0125 | 0.002 | 0.0683
Cn1cnc2c(F)c(Nc3ccc(Br)cc3Cl)c(C(=O)NOCCO)cc21 [Selumetinib] + C=CCn1c(=O)c2cnc(Nc3ccc(N4CCN(C)CC4)cc3)nc2n1-c1cccc(C(C)(C)O)n1 [AZD1775] (first compound max 10 µM, partner max 1 µM) | -0.052 | -0.0766 | -0.0037 | -0.0464 | -0.0423 | -0.0399 | -0.0087 | -0.0019 | 0.0099 | -0.117
